Experimental findings from US20230219904A1 (SYNGENTA CROP PROTECTION AG, priority 2020, published 2023) are described below.

Assay type in all cases: in vivo
Details in all cases: evaluated after 13 days

The subject of test [1] is Ipomoea hederacea (IPOHE). The experiment in a line: Post-emergence herbicidal glasshouse test (Table B1). Summed up: (§1)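 Pre: spray 1 d after sowing; post: spray after 8 d growth. Rate 500 g/h (default); vehicle acetone/water 50:50, 0.5% Tween 20. Glasshouse 24/16° C, 14 h light, 65% humidity. Readout % damage at 13 d, 5-point scale.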
The subject of test [2] is Abutilon theophrasti (ABUTH). Described as above. The method in brief:
as §1

Test [3] has as its system Setaria faberi (SETFA). The description is as above. The method in brief:
as §1

In test [4] the test system is Echinochloa crus-galh (ECHCG). The test is described as above. The method in brief:
as §1

Test [5] relates to Amaranthus retoflexus (AMARE). The description is as above. Summed up: as §1
Test [6] has as its system Ipomoea hederacea (IPOHE). The experiment in a line: Pre-emergence herbicidal glasshouse test (Table B1). The method in brief: as §1
Test [7] has as its system Abutilon theophrasti (ABUTH). Described as above. The method in brief:
as §1

For test [8], the system named is Setaria faberi (SETFA). The description is as above. The method in brief:
as §1

For test [9], the system named is Echinochloa crus-galh (ECHCG). Described as above. The method in brief: as §1
The subject of test [10] is Amaranthus retoflexus (AMARE). Described as above. Summed up:
as §1

With `CCn1nnnc1NC(=O)c1ccc(OC(F)(F)F)c(NC(=O)C(F)F)c1Cl` [Compound 1.122], in [1] (applied at 125 g/ha), the “POST Application IPOHE, percentage damage on five-point scale” value was 2 (2=20-39%). In [2] (applied at 125 g/ha), the “POST Application ABUTH, percentage damage on five-point scale” value is listed as 4 (4=60-79%). Moreover, the “POST Application SETFA, percentage damage on five-point scale” value in the test on Setaria faberi (SETFA) [3] (applied at 125 g/ha) is listed as 3 (3=40-59%). In addition, the “POST Application ECHCG, percentage damage on five-point scale” value in test [4] (applied at 125 g/ha) was 4 (4=60-79%). For the same compound, in [5] (applied at 125 g/ha), the “POST Application AMARE, percentage damage on five-point scale” value was 5 (5=80-100%). For the same compound, the “PRE Application IPOHE, percentage damage on five-point scale” value (from here on “PRE Application IPOHE, percentage damage”) in test [6] (applied at 125 g/ha) was 1 (1=0-19%). Moreover, in [7] (applied at 125 g/ha), the “PRE Application ABUTH, percentage damage on five-point scale” value (from here on “PRE Application ABUTH, percentage damage”) was 3 (3=40-59%). In addition, the “PRE Application SETFA, percentage damage on five-point scale” value (from here on “PRE Application SETFA, percentage damage”) in the test on Setaria faberi (SETFA) [8] (applied at 125 g/ha) is recorded as 3 (3=40-59%). Besides, the “PRE Application ECHCG, percentage damage on five-point scale” value (from here on “PRE Application ECHCG, percentage damage”) in [9] (applied at 125 g/ha) was 4 (4=60-79%). Besides, the “PRE Application AMARE, percentage damage on five-point scale” value (from here on “PRE Application AMARE, percentage damage”) in test [10] (applied at 125 g/ha) is on record as 5 (5=80-100%).

As to `CCn1nnnc1NC(=O)c1ccc(OC(F)(F)F)c(NC(=O)c2ccccc2OC)c1Cl` [Compound 1.123], the “POST Application IPOHE, percentage damage on five-point scale” value in [1] (applied at 125 g/ha) is on record as 5 (5=80-100%). In addition, in test [2] (applied at 125 g/ha), the “POST Application ABUTH, percentage damage on five-point scale” value is reported as 4 (4=60-79%). Besides, in the test with Setaria faberi (SETFA) [3] (applied at 125 g/ha), the “POST Application SETFA, percentage damage on five-point scale” value is reported as 4 (4=60-79%). In addition, the “POST Application ECHCG, percentage damage on five-point scale” value in test [4] (applied at 125 g/ha) is reported as 4 (4=60-79%). Further, the “POST Application AMARE, percentage damage on five-point scale” value in [5] (applied at 125 g/ha) is 4 (4=60-79%). For the same compound, the “PRE Application IPOHE, percentage damage” value in [6] (applied at 125 g/ha) was 2 (2=20-39%). For the same compound, the “PRE Application ABUTH, percentage damage” value in test [7] (applied at 125 g/ha) is 3 (3=40-59%). For the same compound, in the test on Setaria faberi (SETFA) [8] (applied at 125 g/ha), the “PRE Application SETFA, percentage damage” value was 4 (4=60-79%). For the same compound, the “PRE Application ECHCG, percentage damage” value in test [9] (applied at 125 g/ha) was 3 (3=40-59%). Besides, the “PRE Application AMARE, percentage damage” value in test [10] (applied at 125 g/ha) is on record as 3 (3=40-59%).

In the case of `CC(C)C(=O)Nc1c(OC(F)(F)F)ccc(C(=O)Nc2nnnn2C)c1Cl` [Compound 1.124], the “POST Application IPOHE, percentage damage on five-point scale” value in test [1] (applied at 500 g/h) is 5 (5=80-100%). In addition, in test [2] (applied at 500 g/h), the “POST Application ABUTH, percentage damage on five-point scale” value is given as 5 (5=80-100%). The “POST Application SETFA, percentage damage on five-point scale” value in the test with Setaria faberi (SETFA) [3] (applied at 500 g/h) is listed as 5 (5=80-100%). Besides, in [4] (applied at 500 g/h), the “POST Application ECHCG, percentage damage on five-point scale” value is 5 (5=80-100%). For the same compound, the “POST Application AMARE, percentage damage on five-point scale” value in test [5] (applied at 500 g/h) is listed as 5 (5=80-100%). Further, the “PRE Application IPOHE, percentage damage” value in test [6] (applied) is 1 (1=0-19%). The “PRE Application ABUTH, percentage damage” value in [7] (applied at 500 g/h) was 4 (4=60-79%). In the test on Setaria faberi (SETFA) [8] (applied at 500 g/h), the “PRE Application SETFA, percentage damage” value was 4 (4=60-79%). In addition, in [9] (applied at 500 g/h), the “PRE Application ECHCG, percentage damage” value is reported as 5 (5=80-100%). Also, the “PRE Application AMARE, percentage damage” value in [10] (applied at 500 g/h) was 5 (5=80-100%).

For the compound `COC(C)(C)C(=O)Nc1c(OC(F)(F)F)ccc(C(=O)Nc2nnnn2C)c1Cl` [Compound 1.125], the “POST Application IPOHE, percentage damage on five-point scale” value in test [1] (applied at 500 g/h) is recorded as 5 (5=80-100%). Further, in [2] (applied at 500 g/h), the “POST Application ABUTH, percentage damage on five-point scale” value is given as 5 (5=80-100%). Besides, the “POST Application SETFA, percentage damage on five-point scale” value in the test with Setaria faberi (SETFA) [3] (applied at 500 g/h) is 5 (5=80-100%). In addition, in [4] (applied at 500 g/h), the “POST Application ECHCG, percentage damage on five-point scale” value is on record as 5 (5=80-100%). Moreover, the “POST Application AMARE, percentage damage on five-point scale” value in test [5] (applied at 500 g/h) is on record as 5 (5=80-100%). For the same compound, the “PRE Application IPOHE, percentage damage” value in [6] (applied) is on record as 4 (4=60-79%). Also, the “PRE Application ABUTH, percentage damage” value in test [7] (applied at 500 g/h) was 5 (5=80-100%). For the same compound, the “PRE Application SETFA, percentage damage” value in the test on Setaria faberi (SETFA) [8] (applied at 500 g/h) is 1 (1=0-19%). In test [9] (applied at 500 g/h), the “PRE Application ECHCG, percentage damage” value is reported as 5 (5=80-100%). For the same compound, the “PRE Application AMARE, percentage damage” value in [10] (applied at 500 g/h) is given as 5 (5=80-100%).

In the case of `CCC(=O)Nc1c(OC(F)F)ccc(C(=O)Nc2nnnn2C)c1C` [Compound 1.126], the “POST Application IPOHE, percentage damage on five-point scale” value in [1] (applied at 125 g/ha) is 4 (4=60-79%). The “POST Application ABUTH, percentage damage on five-point scale” value in test [2] (applied at 125 g/ha) was 5 (5=80-100%). Besides, in the test with Setaria faberi (SETFA) [3] (applied at 125 g/ha), the “POST Application SETFA, percentage damage on five-point scale” value was 5 (5=80-100%). Besides, the “POST Application ECHCG, percentage damage on five-point scale” value in test [4] (applied at 125 g/ha) was 5 (5=80-100%). Further, the “POST Application AMARE, percentage damage on five-point scale” value in [5] (applied at 125 g/ha) is on record as 5 (5=80-100%). For the same compound, the “PRE Application IPOHE, percentage damage” value in test [6] (applied at 125 g/ha) is on record as 3 (3=40-59%). In addition, in test [7] (applied at 125 g/ha), the “PRE Application ABUTH, percentage damage” value was 5 (5=80-100%). Also, the “PRE Application SETFA, percentage damage” value with Setaria faberi (SETFA) [8] (applied at 125 g/ha) is 2 (2=20-39%). The “PRE Application ECHCG, percentage damage” value in test [9] (applied at 125 g/ha) is reported as 5 (5=80-100%). For the same compound, the “PRE Application AMARE, percentage damage” value in test [10] (applied at 125 g/ha) is 5 (5=80-100%).

Regarding `CCn1nnnc1NC(=O)c1ccc(OC(F)(F)F)c(NC(=O)C(C)F)c1Cl` (stereo not drawn) [Compound 1.127], the “POST Application IPOHE, percentage damage on five-point scale” value in test [1] (applied at 500 g/h) is listed as 5 (5=80-100%). Besides, the “POST Application ABUTH, percentage damage on five-point scale” value in test [2] (applied at 500 g/h) was 5 (5=80-100%). In addition, the “POST Application SETFA, percentage damage on five-point scale” value with Setaria faberi (SETFA) [3] (applied at 500 g/h) is given as 5 (5=80-100%). Also, the “POST Application ECHCG, percentage damage on five-point scale” value in test [4] (applied at 500 g/h) was 5 (5=80-100%). Also, the “POST Application AMARE, percentage damage on five-point scale” value in test [5] (applied at 500 g/h) is 5 (5=80-100%). The “PRE Application IPOHE, percentage damage” value in test [6] (applied) is 2 (2=20-39%). Moreover, in test [7] (applied at 500 g/h), the “PRE Application ABUTH, percentage damage” value was 5 (5=80-100%). For the same compound, the “PRE Application SETFA, percentage damage” value in the test with Setaria faberi (SETFA) [8] (applied at 500 g/h) was 3 (3=40-59%). Besides, in test [9] (applied at 500 g/h), the “PRE Application ECHCG, percentage damage” value is 5 (5=80-100%). Also, in test [10] (applied at 500 g/h), the “PRE Application AMARE, percentage damage” value is given as 5 (5=80-100%).
